# Results taken from ChEMBL document CHEMBL1152390, “Macrophyllin-type bicyclo[3.2.1]octanoid neolignans from the leaves of Pleurothyrium cinereum” (J Nat Prod, 2009).
# pIC50: −log10 of the molar value.
# Assays:
# [1] = system: Salmonella enterica subsp. enterica; experiment: Antibacterial activity against Salmonella Typhimurium EG10627 by radial diffusion assay; type: functional, Salmonella enterica subsp. enterica serovar Typhimurium
# [2] = system: Salmonella enterica subsp. enterica; experiment: Antibacterial activity against Salmonella Typhimurium ATCC 14028s by radial diffusion assay; type: functional, Salmonella enterica subsp. enterica serovar Typhimurium
# [3] = system: Staphylococcus aureus; experiment: Antibacterial activity against Staphylococcus aureus ATCC 65380 by radial diffusion assay; type: functional
# [4] = Antiplatelet activity in rabbit platelets assessed as inhibition of PAF-induced platelet aggregation treated 5 mins before PAF challenge; type: functional, cell-based; conditions: Oryctolagus cuniculus
# [5] = system: Enterococcus faecalis; experiment: Antibacterial activity against Enterococcus faecalis ATCC 29212 by radial diffusion assay; type: functional
# [6] = system: Mycobacterium tuberculosis; experiment: Antituberculosis activity against Mycobacterium tuberculosis H37Rv assessed as parasite growth inhibition at 100 ug/ml after 4 days by microplate alamar blue assay; type: functional; conditions: 96 h, read-out: GI
# [7] = system: Escherichia coli; experiment: Antibacterial activity against Escherichia coli ATCC 25922 by radial diffusion assay; type: functional
# [8] = system: Mycobacterium tuberculosis; experiment: Antituberculosis activity against Mycobacterium tuberculosis H37Rv assessed as parasite growth inhibition at 25 ug/ml after 4 days by microplate alamar blue assay; type: functional; conditions: 96 h, read-out: GI
# [9] = system: Salmonella enterica subsp. enterica; experiment: Antibacterial activity against Salmonella Typhimurium MS 7953 by radial diffusion assay; type: functional, Salmonella enterica subsp. enterica serovar Typhimurium
# [10] = system: Mycobacterium tuberculosis; experiment: Antituberculosis activity against Mycobacterium tuberculosis H37Rv assessed as parasite growth inhibition at 50 ug/ml after 4 days by microplate alamar blue assay; type: functional; conditions: 96 h, read-out: GI
SMILES,growth inhibition (GI) [1] [%],growth inhibition (GI) [2] [%],growth inhibition (GI) [3] [%],pIC50 [4],growth inhibition (GI) [5] [%],inhibition of growth at 100 µg/mL [6] [%],growth inhibition (GI) [7] [%],inhibition of growth at 25 µg/mL [8] [%],growth inhibition (GI) [9] [%],inhibition of growth at 50 µg/mL [10] [%]
C=CCC1=C[C@@]2(OC)C(=O)[C@](OC)([C@H](c3cc(OC)c4c(c3)OCO4)[C@H]2C)[C@H]1O [CINERIN D],<30,<30,<30,5.18,<30,7.3,<30,1.3,<30,6.2
C=CCC1=C[C@@]2(OC)C(=CC1=O)O[C@H](c1ccc(OC)c(OC)c1)[C@H]2C [KADSURENONE],–,–,–,6.92,–,–,–,–,–,–
C=CCC1=C[C@]2(OC)[C@H](C)[C@@H](c3cc(OC)c4c(c3)OCO4)[C@](OC)(C1=O)[C@H]2O [CINERIN C],<30,<30,<30,5.96,<30,49.4,<30,43.8,<30,49.8
C=CCC1=C[C@@]2(OC)[C@H](C)[C@@H](c3cc(OC)c4c(c3)OCO4)[C@H](C1=O)[C@@H]2O [CINERIN B],<30,<30,<30,5.82,<30,19.5,<30,13.9,<30,20.9
NNC(=O)c1ccncc1 [ISONIAZID],–,–,–,–,–,–,–,94.2,–,–
C=C1C[C@@]23CC[C@H]4[C@@](C)(CCC[C@@]4(C)C(=O)O)[C@@H]2CC[C@@H]1C3 [KAURENOIC ACID],<30,<30,<30,–,<30,94.2,<30,88.6,<30,91.3
C=CCC1=C[C@]2(OC)C(=O)[C@@](OC)(C1=O)[C@H](c1cc(OC)c3c(c1)OCO3)[C@H]2C [CINERIN A],<30,<30,<30,4.77,<30,8.1,<30,2.5,<30,7.2
CO[C@H]1/C=C/O[C@@]2(C)Oc3c(C)c(O)c4c(O)c(c(/C=N/N5CCN(C)CC5)c(O)c4c3C2=O)NC(=O)/C(C)=C\C=C\[C@H](C)[C@H](O)[C@@H](C)[C@@H](O)[C@@H](C)[C@H](OC(C)=O)[C@@H]1C [RIFAMPIN],–,–,–,–,–,–,–,97.6,–,–
C[C@@H]1C(=O)O[C@H]2[C@H](O)[C@@]34[C@H]5C[C@@H](C(C)(C)C)[C@]36[C@@H](OC(=O)[C@@H]6O)O[C@@]4(C(=O)O5)[C@@]12O [GINKOLIDE B],–,–,–,6.03,–,–,–,–,–,–
